This note sets out measurements from patent US10202389B2, “Pyrazolopyrimidinyl inhibitors of ubiquitin-activating enzyme” (Millennium Pharmaceuticals, Inc., priority 2012, dated 2019).

SMILES strings stand for the structures.

recombinant human UAE, sequence (P22314 whole entry): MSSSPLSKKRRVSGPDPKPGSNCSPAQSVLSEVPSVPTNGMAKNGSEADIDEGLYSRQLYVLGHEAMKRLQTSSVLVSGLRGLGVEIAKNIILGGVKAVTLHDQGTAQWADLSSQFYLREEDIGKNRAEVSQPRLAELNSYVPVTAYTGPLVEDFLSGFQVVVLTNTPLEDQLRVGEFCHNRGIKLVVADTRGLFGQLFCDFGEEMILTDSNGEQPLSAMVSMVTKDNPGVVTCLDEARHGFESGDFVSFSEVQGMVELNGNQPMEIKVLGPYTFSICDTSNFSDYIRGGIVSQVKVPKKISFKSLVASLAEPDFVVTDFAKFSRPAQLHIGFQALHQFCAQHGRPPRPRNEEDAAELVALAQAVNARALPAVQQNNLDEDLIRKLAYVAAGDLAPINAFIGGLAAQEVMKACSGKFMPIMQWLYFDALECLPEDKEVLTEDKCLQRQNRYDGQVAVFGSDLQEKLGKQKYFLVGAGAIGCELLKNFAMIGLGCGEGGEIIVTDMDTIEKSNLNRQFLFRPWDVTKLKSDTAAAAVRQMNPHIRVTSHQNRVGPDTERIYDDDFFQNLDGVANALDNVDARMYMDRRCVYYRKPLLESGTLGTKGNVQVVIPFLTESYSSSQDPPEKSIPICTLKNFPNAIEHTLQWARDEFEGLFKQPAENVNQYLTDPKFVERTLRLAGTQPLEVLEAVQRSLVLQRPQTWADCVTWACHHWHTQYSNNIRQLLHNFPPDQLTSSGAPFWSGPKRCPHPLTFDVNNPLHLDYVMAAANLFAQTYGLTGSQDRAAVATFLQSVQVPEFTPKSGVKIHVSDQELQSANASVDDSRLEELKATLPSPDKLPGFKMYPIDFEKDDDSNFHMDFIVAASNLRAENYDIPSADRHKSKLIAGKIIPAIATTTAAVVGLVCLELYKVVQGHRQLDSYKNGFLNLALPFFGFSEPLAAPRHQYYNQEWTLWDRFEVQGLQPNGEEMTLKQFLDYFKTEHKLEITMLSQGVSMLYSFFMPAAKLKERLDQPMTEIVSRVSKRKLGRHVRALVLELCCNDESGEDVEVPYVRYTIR

This experiment addresses recombinant human UAE (Homo sapiens (Human), UniProt P22314). Briefly: Ubiquitin Activating Enzyme (UAE) HTRF Assay. The conditions noted are these: read-out: % inhibition @0.111 μM.
Procedure: After incubation for 120 minutes, quantification of the FRET is performed on the Pherostar (BMG).
For compounds whose values are marked with an asterisk (*), mouse UAE was used. For all other compounds, human UAE was used.
The inhibition is the change of the read-out against control, counted positive when it falls. As to `NS(=O)(=O)OC[C@H]1C[C@@H](Nc2ccnc3cc(-c4cccc(N5CCOCC5)c4)nn23)[C@H](O)[C@@H]1O` (relative stereo) [Compound I-078, (rac)-((1R,2R,3S,4R)-2,3-dihydroxy-4-(2-(3-morpholinophenyl)pyrazolo[1,5-a]pyrimidin-7-ylamino)cyclopentyl)methyl rel-sulfamate], the inhibition at 0.111 µM was 100%.
The value for `NS(=O)(=O)OC[C@H]1C[C@@H](Nc2ccnc3cc(-c4ccccc4SC(F)(F)F)nn23)[C@H](O)[C@@H]1O` (relative stereo) [Compound I-079, (rac)-((1R,2R,3S,4R)-2,3-dihydroxy-4-(2-(2-(trifluoromethylthio)phenyl)pyrazolo[1,5-a]pyrimidin-7-ylamino)cyclopentyl)methyl rel-sulfamate] was 75%.
Then `NS(=O)(=O)OC[C@H]1C[C@@H](Nc2ccnc3cc(-c4ccc(SC(F)(F)F)cc4)nn23)[C@H](O)[C@@H]1O` (relative stereo) [Compound I-080, (rac)-((1R,2R,3S,4R)-2,3-dihydroxy-4-(2-(4-(trifluoromethylthio)phenyl)pyrazolo[1,5-a]pyrimidin-7-ylamino)cyclopentyl)methyl rel-sulfamate], with 80%; and `NS(=O)(=O)OC[C@H]1C[C@@H](Nc2ccnc3cc(-c4csc5ccc(F)cc45)nn23)[C@H](O)[C@@H]1O` (relative stereo) [Compound I-081, (rac)-((1R,2R,3S,4R)-4-(2-(5-fluorobenzo[b]thiophen-3-yl)pyrazolo[1,5-a]pyrimidin-7-ylamino)-2,3-dihydroxycyclopentyl)methyl rel-sulfamate], with 100%; and `COC(C)(C)c1cccc(-c2cc3nccc(N[C@@H]4C[C@H](COS(N)(=O)=O)[C@@H](O)[C@H]4O)n3n2)c1` (relative stereo) [Compound I-082, (rac)-((1R,2R,3S,4R)-2,3-dihydroxy-4-(2-(3-(2-methoxypropan-2-yl)phenyl)pyrazolo[1,5-a]pyrimidin-7-ylamino)cyclopentyl)methyl rel-sulfamate], with 100%.
Then `C#Cc1cccc(-c2cc3nccc(N[C@@H]4C[C@H](COS(N)(=O)=O)[C@@H](O)[C@H]4O)n3n2)c1` (relative stereo) [Compound I-083, (rac)-[(1R,2R,3S,4R)-4-{[2-(3-ethynylphenyl)pyrazolo[1,5-a]pyrimidin-7-yl]amino}-2,3-dihydroxycyclopentyl]methyl rel-sulfamate], with 100%.
Regarding `CCOC(C)(C)c1cccc(-c2cc3nccc(N[C@@H]4C[C@H](COS(N)(=O)=O)[C@@H](O)[C@H]4O)n3n2)c1` (relative stereo) [Compound I-084, (rac)-((1R,2R,3S,4R)-4-(2-(3-(2-ethoxypropan-2-yl)phenyl)pyrazolo[1,5-a]pyrimidin-7-ylamino)-2,3-dihydroxycyclopentyl)methyl rel-sulfamate], the inhibition at 0.111 µM turned out to be 100%.
On to `NS(=O)(=O)OC[C@H]1C[C@@H](Nc2ccnc3cc(-c4ccc5c(c4)C(=O)c4ccccc4-5)nn23)[C@H](O)[C@@H]1O` (relative stereo) [Compound I-085, (rac)-((1R,2R,3S,4R)-2,3-dihydroxy-4-(2-(9-oxo-9H-fluoren-2-yl)pyrazolo[1,5-a]pyrimidin-7-ylamino)cyclopentyl)methyl rel-sulfamate], for which the inhibition at 0.111 µM is 99%.
The value for `NS(=O)(=O)OC[C@H]1C[C@@H](Nc2ccnc3cc(-c4cc5ccccc5o4)nn23)[C@H](O)[C@@H]1O` (relative stereo) [Compound I-086, (rac)-((1R,2R,3S,4R)-4-(2-(benzofuran-2-yl)pyrazolo[1,5-a]pyrimidin-7-ylamino)-2,3-dihydroxycyclopentyl)methyl rel-sulfamate] was 99%; that for `NS(=O)(=O)OC[C@H]1C[C@@H](Nc2ccnc3cc(-c4cccc(N5CCCC5=O)c4)nn23)[C@H](O)[C@@H]1O` (relative stereo) [Compound I-087, (rac)-((1R,2R,3S,4R)-2,3-dihydroxy-4-(2-(3-(2-oxopyrrolidin-1-yl)phenyl)pyrazolo[1,5-a]pyrimidin-7-ylamino)cyclopentyl)methyl rel-sulfamate] was 100%; that for `NS(=O)(=O)OC[C@H]1C[C@@H](Nc2ccnc3cc(-c4cc5ccc(Cl)cc5s4)nn23)[C@H](O)[C@@H]1O` (relative stereo) [Compound I-088, (rac)-((1R,2R,3S,4R)-4-(2-(6-chlorobenzo[b]thiophen-2-yl)pyrazolo[1,5-a]pyrimidin-7-ylamino)-2,3-dihydroxycyclopentyl)methyl rel-sulfamate] was 97%.
Then `Cc1cnc2cc(-c3ccccc3)nn2c1N[C@@H]1C[C@H](COS(N)(=O)=O)[C@@H](O)[C@H]1O` (relative stereo) [Compound I-089, (rac)-{(1R,2R,3S,4R)-2,3-dihydroxy-4-[(6-methyl-2-phenylpyrazolo[1,5-a]pyrimidin-7-yl)amino]cyclopentyl}methyl rel-sulfamate], with 27%; and `CCCOC(C)(C)c1cccc(-c2cc3nccc(N[C@@H]4C[C@H](COS(N)(=O)=O)[C@@H](O)[C@H]4O)n3n2)c1` (relative stereo) [Compound I-090, (rac)-((1R,2R,3S,4R)-2,3-dihydroxy-4-(2-(3-(2-propoxypropan-2-yl)phenyl)pyrazolo[1,5-a]pyrimidin-7-ylamino)cyclopentyl)methyl rel-sulfamate], with 100%.
Then `NS(=O)(=O)OC[C@H]1C[C@@H](Nc2ccnc3cc(-c4coc5ccc(Cl)cc45)nn23)[C@H](O)[C@@H]1O` (relative stereo) [Compound I-092, (rac)-((1R,2R,3S,4R)-4-(2-(5-chlorobenzofuran-3-yl)pyrazolo[1,5-a]pyrimidin-7-ylamino)-2,3-dihydroxycyclopentyl)methyl rel-sulfamate], with 100%; and `NS(=O)(=O)OC[C@H]1C[C@@H](Nc2ccnc3cc(-c4ccc5c(c4)oc4ccccc45)nn23)[C@H](O)[C@@H]1O` (relative stereo) [Compound I-093, (rac)-((1R,2R,3S,4R)-4-(2-(dibenzo[b,d]furan-3-yl)pyrazolo[1,5-a]pyrimidin-7-ylamino)-2,3-dihydroxycyclopentyl)methyl rel-sulfamate], with 100%.
In the case of `CCc1ccc2scc(-c3cc4nccc(N[C@@H]5C[C@H](COS(N)(=O)=O)[C@@H](O)[C@H]5O)n4n3)c2c1` (relative stereo) [Compound I-094, (rac)-((1R,2R,3S,4R)-4-(2-(5-ethylbenzo[b]thiophen-3-yl)pyrazolo[1,5-a]pyrimidin-7-ylamino)-2,3-dihydroxycyclopentyl)methyl rel-sulfamate], the inhibition at 0.111 µM came out at 100%.
Regarding `CCc1ccc2sc(-c3cc4nccc(N[C@@H]5C[C@H](COS(N)(=O)=O)[C@@H](O)[C@H]5O)n4n3)cc2c1` (relative stereo) [Compound I-095, (rac)-((1R,2R,3S,4R)-4-(2-(5-ethylbenzo[b]thiophen-2-yl)pyrazolo[1,5-a]pyrimidin-7-ylamino)-2,3-dihydroxycyclopentyl)methyl rel-sulfamate], the inhibition at 0.111 µM came to 70%.
